Assay [1] concerns the target T1, Human recombinant MAO-A (hMAO-A) (Homo sapiens, UniProt P21397).
T1 construct: purchased Sigma Aldrich; host or cells: insect cells
T1 sequence (P21397 1-527): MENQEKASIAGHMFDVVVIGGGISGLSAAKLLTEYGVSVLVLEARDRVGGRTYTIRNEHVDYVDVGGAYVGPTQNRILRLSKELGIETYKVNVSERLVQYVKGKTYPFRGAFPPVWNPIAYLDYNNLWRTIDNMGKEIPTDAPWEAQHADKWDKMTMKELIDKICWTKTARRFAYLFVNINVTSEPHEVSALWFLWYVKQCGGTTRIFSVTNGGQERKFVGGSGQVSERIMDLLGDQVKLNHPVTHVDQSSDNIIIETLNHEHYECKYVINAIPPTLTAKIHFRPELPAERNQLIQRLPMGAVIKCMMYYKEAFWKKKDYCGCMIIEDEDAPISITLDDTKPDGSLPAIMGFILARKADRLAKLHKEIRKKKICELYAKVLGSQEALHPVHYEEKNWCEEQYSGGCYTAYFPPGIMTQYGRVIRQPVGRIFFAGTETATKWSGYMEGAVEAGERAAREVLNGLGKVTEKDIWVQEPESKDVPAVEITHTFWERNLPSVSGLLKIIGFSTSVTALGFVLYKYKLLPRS
Nature of the assay: MAO-A enzyme assay (Amplex Red), selectivity. Format: biochemical. The protocol:
Biological evaluation of the synthesized melatonin derivatives over both MAO-A and MAO-B was performed as reported previously. A detailed description of the protocol is in the Supplementary Materials.
6. Materials and methods of monoamine oxidase (MAO) enzyme assay
The inhibitory activity of MAO-A, B enzyme of the compounds was evaluated based on previously described method. The MAO activity was measured in relative fluorescence units (RFU) evoked by peroxidase-catalyzed oxidation of Amplex Red® to resorufin, in which H2O2 generated by MAO reaction was used as the […]. Human recombinant MAO-A (hMAO-A) and MAO-B (hMAO-B) enzyme expressed in insect cells were obtained from Sigma Aldrich. The 2 μL of test compound in DMSO (final concentration: 1 nM – 10 μM) was treated with 98 μL of hMAO enzyme solution in 50 mM sodium phosphate buffer (pH 7.4, final protein amounts: ~1.25 μg protein/well for MAO-A and ~2.5 μg protein/well for MAO -B) on 96-well black plate and incubated for 15 min at 37 °C. Then 100 μL of reaction working solution which is mixed solution of 400 μM Amplex Red® (Cayman, final concentration: 200 μM), 2 U/mL horseradish peroxidase ( Sigma-Aldrich, final concentration: 1 U/mL) and 2 mM substrate ( p-tyramine for MAO -A, benzylamine for MAO -B, Sigma-Aldrich, final concentration: 1 mM) in 50 mM sodium phosphate buffer (pH 7.4) were added and incubated for 20 min at 37 °C in the dark. The fluorescent intensity was quantified using a microplate reader (SpectraMax®i3, Molecular Device) with an excitation at 545 nm and an emission at 590 nm. The 50% inhibitory concentrations (IC50) of compounds were determined as the mean ± S.E.M. in triplicate from the dose-response inhibition curves using SigmaPlot® 13.0.
monoamine oxidase inhibitors. Bioorganic & medicinal chemistry 2015, 23, 6486-6496,

The next assay deals with PC12 cells. Nature of the assay: Neuroprotection against rotenone-induced toxicity in PC12 cells (MTT). The settings on record: Rattus norvegicus, PC-12, 24 h, read-out: IC50 of protection from rotenone-induced toxicity. Here is the method:
Control cells were incubated in an equivalent volume of DMSO to a final concentration of 0.3%. Neuroprotective effects of the tested compounds on the toxicity induced by 6-OHDA or rotenone in PC12 cells were evaluated as described previously with slight modifications. In brief, cells were pre-treated with the tested compounds or rasagiline at the indicated concentrations for 4 h. Next, they were exposed to 6-OHDA (50 μM) or rotenone (1 μM) for 24 h. In another set of experiments, the influence of HO-1 inhibitor, ZnPP, on the neuroprotective effects of the tested compounds against 6-OHDA-induced oxidative damage was investigated as previously reported. Briefly, the cells were pre-treated with the tested compounds for 4 h and then incubated with 0.2 µM of ZnPP for 30 min. Subsequently, 6-OHDA was added at a final concentration of 50 µM and incubated for 24 h.
After the desired treatment, cell viability was determined by MTT assay as described previously. Briefly, MTT was added to the cells at the final concentration of 0.5 mg/mL, which was followed by incubation for 3 h at 37 °C. The supernatants were carefully removed, and then, 300 μL of DMSO was added to each well to dissolve formazan precipitate. The absorbance of the dissolved solution was measured at 550 nm using a microplate reader (SpectraMax M2^e, Molecular Devices, Sunnyvale, CA, USA). The cell viability was presented as the percentage of the absorbance measured in the vehicle-treated control cells.

The next assay deals with HO-1. Nature of the assay: HO-1 protein expression in PC12 cells (Western blotting). The format is cell-based, rat. The note with it: for HO-1 protein expression over time: 10 μM, 1 to 12 h, significant at 6–12 h; for increase in HO-1 expression: 30 μM, 12 h. The protocol:
PC12 cells were seeded on 35 mm dishes at a density of 2 × 10^6 cells/dish and kept at 37 °C in humidified incubator for at least 24 h. Cells were treated with a series of concentrations of the tested compounds for 12 h or with the tested compounds (10 μM) for the indicated time points. Control cells were treated with serum-free media containing 0.3% DMSO instead. Total cell lysates were prepared according to the methods described previously, and stored at −20 °C until used. To evaluate the effects of the tested compounds on the nuclear translocation of Nrf2, nuclear fraction was separated from cytosolic fraction using NE-PER Nuclear and Cytoplasmic Extraction Reagents (Rockford, IL, USA), following the manufacturer’s directions. The protein concentrations were assessed using a BioRad DC protein assay kit (BioRad, Hercules, CA, USA). Equal amounts of proteins (20 µg) were resolved on 12% or 8% gels via sodium dodecyl sulfate-polyacrylamide gel electrophoresis and electrophoretically transferred onto nitrocellulose membrane (Whatman, Clifton, NJ, USA). Subsequently, immunoblotting was performed using anti-HO-1 or anti-Nrf2 antibodies, respectively, according to the procedures reported previously. Beta-actin, a highly conserved cytoskeletal protein, was used as a loading control of cell lysates to normalize the level of HO-1, while nuclear protein lamin B was used as a nuclear loading control to normalize the level of Nrf2 in the nuclear fraction. Finally, the immunoreactive bands corresponding to HO-1 or Nrf2 proteins were visualized using Clarity^TM Western ECL substrate (Bio-Rad, Hercules, CA, USA) using the BioRad ChemiDoc XRS imaging system (Bio-Rad, Hercules, CA, USA).
Background: A western blot detects proteins with antibodies after separation by electrophoresis.

SMILES strings stand for the structures.

As to `O=C(Nc1ccc2[nH]ccc2c1)c1cccc(Cl)c1` [3n, 3-Chloro-N-(1H-indol-5-yl)benzamide], in assay [1], the IC50 (commonly the concentration that gives 50% inhibition) was over 100000 nM. In addition, the IC50 in the assay with PC12 cells is 1400 nM. In the assay on HO-1, the “HO-1 protein expression over time” value is “time-dependent increases” and the “increase in HO-1 expression” value is 1.6 fold.
The matching figures for `O=C(Nc1ccc2[nH]ccc2c1)c1cccc(Br)c1` [3r, 3-Bromo-N-(1H-indol-5-yl)benzamide]: over 100000 nM, 870 nM, “time-dependent increases” and 1.7 fold.

For the origin of these results see PMC8533333, “Melatonin Analogues Potently Inhibit MAO-B and Protect PC12 Cells against Oxidative Stress” (Antioxidants, 2021).
